Measured values as given in patent US5866087A, “Calixarene derivatives, their preparation process and their use for extracting actinides and lanthanides” (priority 1995, dated 1999).

Columns and labels:
[1] = supported liquid membrane transport into aqueous reextraction solution; format: physicochemical; conditions: for Percentage transported in 6 h. 237 Np / Percentage transported in 6 h. 239 Pu / Percentage transported in 6 h. 241 Am / Percentage of 239Pu transported in 24 h / Percentage transported in 24 h. 237 Np / Percentage transported in 24 h. 241 Am / Percentage transported in 6 h. 152 Eu / Percentage transported in 24 h. 152 Eu: supported liquid membrane, 0.001 or 0.0001M calixarene (CMPO 10^-2 M); for Permeability (cm/h) 237 Np / Permeability (cm/h) 239 Pu / Permeability (cm/h) 241 Am / Permeability (cm/h) 152 Eu: CELGARD 2500 membrane, nitrophenylhexyl ether with 0.001 or 0.0001M calixarene (CMPO 10^-2 M), reextraction 1 mole/l methylene diphosphonic acid
From the text: These examples use the second embodiment of the process according to the invention for extracting europium, neptunium, plutonium and americium from aqueous solutions having the same compositions as those used in examples 7 to 16. These examples use the device shown in the attached drawing.
This device comprises an enclosure 1 subdivided into two compartents 3 and 5 by a supported liquid membrane 7, constituted by a microporous polypropylene membrane marketed under the name CELGARD 2500 and having the following characteristics:
membrane thickness: 0.025 mm.
The pores of this membrane are filled with an organic phase constituted by nitrophenylhexyl ether incorporating 0.001 or 0.0001M of calixarene.
Compartment 3 contains 50 ml of aqueous solution (NaNO3 :4 mole/l, HNO3 : 1mole/l with Eu, Np, Pu, Am); and compartment 5 contains 50ml of an aqueous reextraction solution constituted by an aqueous solution with 1 mole/l of methylene diphosphonic acid.
The two solutions are stirred and the initial activity of the solution of compartment 3 is determined, followed by the activity of the aqueous reextraction solution of compartment 5 by liquid α spectrometry and the operation is continued for one day. From it is deduced the percentage of neptunium, plutonium, americium and europium recovered in the aqueous reextraction solution after 6 and 24 h.
The calixarenes used, the permeability (in cm h^-1) of the membrane to Np and Pu, as well as the %, at the end of 6 and 24 h,of Eu, Am, Np and Pu recovered are given in table 3.

[2] = liquid-liquid extraction from aqueous nitric solution, distribution coefficient D; format: physicochemical; conditions: for D(distribution coefficient) 152-Eu: pH ≈0, 1 hour contacting
Experimental: In these examples, an evaluation takes place of the effectiveness of the calixarenes of table 1 for extracting plutonium, neptunium and americium, as well as europium (simulating all the trivalent lanthanides) of an aqueous solution containing one of these elements. The composition of the aqueous solution is as follows:
[…] Contacting takes place in a 20 ml polypropylene tube, which undergoes stirring. After 1 hour of contacting, the two phases are allowed to settle and the activity of each phase is counted by liquid scintillation or α and γ spectrometries.
The distribution coefficient D is then determined and this corresponds to the ratio of the activity of actinide in the organic phase to the activity of actinide in the aqueous phase.

[3] = calixarene 0.001M in nitrophenyloctylether, aqueous HNO3, NaNO3 4 mole/l
[4] = calixarene 0.001M in nitrophenyloctylether, aqueous HNO3, NaNO3 4 mole/l, 1 hour, * = precipitation
[5] = calixarene 0.0001M in nitrophenyloctylether, aqueous HNO3, NaNO3 4 mole/l, 1 hour, * = precipitation
[6] = calixarene 0.0005M, aqueous HNO3, NaNO3 4 mole/l, 1 hour
[7] = CMPO 0.01M in nitrophenyl hexyl ether, comparative

## CCCCCOc1c2cc(NC(=O)CP(=O)(c3ccccc3)c3ccccc3)cc1Cc1cc(NC(=O)CP(=O)(c3ccccc3)c3ccccc3)cc(c1OCCCCC)Cc1cc(NC(=O)CP(=O)(c3ccccc3)c3ccccc3)cc(c1OCCCCC)Cc1cc(NC(=O)CP(=O)(c3ccccc3)c3ccccc3)cc(c1OCCCCC)C2 [Compound 8]
[1]
  Percentage transported in 6 h. 237 Np: 8.5%
  Percentage transported in 6 h. 239 Pu: 79.6%
  Percentage transported in 6 h. 241 Am: 99%
  Percentage of 239Pu transported in 24 h: 80%
  Percentage transported in 24 h. 237 Np: 14.5%
  Percentage transported in 24 h. 241 Am: 100%
  Permeability (cm/h) 237 Np: < 0.2 cm/h
  Permeability (cm/h) 239 Pu: 3.6 cm/h
  Permeability (cm/h) 241 Am: 3.4 cm/h
[2]; [3]
  D(distribution coefficient) 152-Eu: > 100
[2]; [4]
  D(distribution coefficient) 237-Np: 2
  D(distribution coefficient) 239-Pu: 100
  D(distribution coefficient) 241-Am: 250

## CCCCCCCCOc1c2cc(NC(=O)CP(=O)(c3ccccc3)c3ccccc3)cc1Cc1cc(NC(=O)CP(=O)(c3ccccc3)c3ccccc3)cc(c1OC)Cc1cc(NC(=O)CP(=O)(c3ccccc3)c3ccccc3)cc(c1OCCCCCCCC)Cc1cc(NC(=O)CP(=O)(c3ccccc3)c3ccccc3)cc(c1OC)C2 [Compound 9]
[1]
  Percentage transported in 6 h. 237 Np: 52.4%
  Percentage transported in 6 h. 239 Pu: 84.1%
  Percentage transported in 6 h. 241 Am: 91.3%
  Percentage of 239Pu transported in 24 h: 86%
  Percentage transported in 24 h. 237 Np: 75.2%
  Percentage transported in 24 h. 241 Am: 100%
  Permeability (cm/h) 237 Np: 1.6 cm/h
  Permeability (cm/h) 239 Pu: 4.2 cm/h
  Permeability (cm/h) 241 Am: 2.9 cm/h
[2]; [3]
  D(distribution coefficient) 152-Eu: > 100
[2]; [4]
  D(distribution coefficient) 237-Np: 2
  D(distribution coefficient) 239-Pu: 110
  D(distribution coefficient) 241-Am: 280

## CCCCCCCCCCCCCCCCCCOc1c2cc(NC(=O)CP(=O)(c3ccccc3)c3ccccc3)cc1Cc1cc(NC(=O)CP(=O)(c3ccccc3)c3ccccc3)cc(c1OCCCCCCCCCCCCCCCCCC)Cc1cc(NC(=O)CP(=O)(c3ccccc3)c3ccccc3)cc(c1OCCCCCCCCCCCCCCCCCC)Cc1cc(NC(=O)CP(=O)(c3ccccc3)c3ccccc3)cc(c1OCCCCCCCCCCCCCCCCCC)C2 [Compound 5]
[2]; [5]
  D(distribution coefficient) 237-Np: 1.5
  D(distribution coefficient) 239-Pu: 24
  D(distribution coefficient) 241-Am: 21

## CCCCCCCCCCCCOc1c2cc(NC(=O)CP(=O)(c3ccccc3)c3ccccc3)cc1Cc1cc(NC(=O)CP(=O)(c3ccccc3)c3ccccc3)cc(c1OCCCCCCCCCCCC)Cc1cc(NC(=O)CP(=O)(c3ccccc3)c3ccccc3)cc(c1OCCCCCCCCCCCC)Cc1cc(NC(=O)CP(=O)(c3ccccc3)c3ccccc3)cc(c1OCCCCCCCCCCCC)C2 [Compound 1, 25, 26, 27, 28 tetradodecyloxy-tetra-5, 11, 17, 23-(diphenylphosphinoxidoacetamido) calix[4]arene]
[1]
  Percentage transported in 6 h. 152 Eu: 95%
  Percentage transported in 6 h. 237 Np: 56%
  Percentage transported in 6 h. 239 Pu: 84%
  Percentage transported in 6 h. 241 Am: 97%
  Percentage of 239Pu transported in 24 h: 85%
  Percentage transported in 24 h. 152 Eu: 100%
  Percentage transported in 24 h. 237 Np: 66%
  Percentage transported in 24 h. 241 Am: 100%
  Permeability (cm/h) 152 Eu: 2.75 cm/h
  Permeability (cm/h) 237 Np: 1.35 cm/h
  Permeability (cm/h) 239 Pu: 3.4 cm/h
  Permeability (cm/h) 241 Am: 4.9 cm/h
[2]; [4]
  D(distribution coefficient) 237-Np: 4
  D(distribution coefficient) 239-Pu: > 100
  D(distribution coefficient) 241-Am: > 100

## CCCCCCCCCCOc1c2cc(NC(=O)CP(=O)(c3ccccc3)c3ccccc3)cc1Cc1cc(NC(=O)CP(=O)(c3ccccc3)c3ccccc3)cc(c1OCCCCCCCCCC)Cc1cc(NC(=O)CP(=O)(c3ccccc3)c3ccccc3)cc(c1OCCCCCCCCCC)Cc1cc(NC(=O)CP(=O)(c3ccccc3)c3ccccc3)cc(c1OCCCCCCCCCC)C2 [Compound 2, tetra-O-decyl tetrakis (diphenyl phosphinoxidoacetamido)calix[4]arene]
[1]
  Percentage transported in 6 h. 237 Np: 73%
  Percentage transported in 6 h. 239 Pu: 82%
  Percentage transported in 6 h. 241 Am: 95.5%
  Percentage of 239Pu transported in 24 h: 83%
  Percentage transported in 24 h. 237 Np: 80%
  Percentage transported in 24 h. 241 Am: 100%
  Permeability (cm/h) 237 Np: 3 cm/h
  Permeability (cm/h) 239 Pu: 3.6 cm/h
  Permeability (cm/h) 241 Am: 5 cm/h
[2]; [3]
  D(distribution coefficient) 152-Eu: > 100
[2]; [4]
  D(distribution coefficient) 237-Np: 2
  D(distribution coefficient) 239-Pu: 90
  D(distribution coefficient) 241-Am: 100

## CCCCC(CC)COc1c2cc(NC(=O)CP(=O)(c3ccccc3)c3ccccc3)cc1Cc1cc(NC(=O)CP(=O)(c3ccccc3)c3ccccc3)cc(c1OCC(CC)CCCC)Cc1cc(NC(=O)CP(=O)(c3ccccc3)c3ccccc3)cc(c1OCC(CC)CCCC)Cc1cc(NC(=O)CP(=O)(c3ccccc3)c3ccccc3)cc(c1OCC(CC)CCCC)C2 (centres unmarked) [Compound 10]
[1]
  Percentage transported in 6 h. 237 Np: 19.8%
  Percentage transported in 6 h. 239 Pu: 53.5%
  Percentage transported in 6 h. 241 Am: 27.8%
  Percentage of 239Pu transported in 24 h: 76.6%
  Percentage transported in 24 h. 237 Np: 30.4%
  Percentage transported in 24 h. 241 Am: 62.4%
  Permeability (cm/h) 237 Np: 0.6 cm/h
  Permeability (cm/h) 239 Pu: 2 cm/h
  Permeability (cm/h) 241 Am: 0.5 cm/h
[2]; calixarene 0.0005M, aqueous HNO3, NaNO3 4 mole/l
  D(distribution coefficient) 152-Eu: 1.5
[2]; [6]
  D(distribution coefficient) 237-Np: 2
  D(distribution coefficient) 239-Pu: 20
  D(distribution coefficient) 241-Am: 4.5

## CCCCCCCCP(=O)(CC(=O)N(CC(C)C)CC(C)C)c1ccccc1 (centres unmarked) [CMPO, reference compound]
[1]
  Percentage transported in 6 h. 237 Np: 50%
  Percentage transported in 6 h. 239 Pu: 99%
  Percentage transported in 6 h. 241 Am: 9.8%
  Percentage of 239Pu transported in 24 h: 100%
  Percentage transported in 24 h. 237 Np: 68%
  Percentage transported in 24 h. 241 Am: 45%
  Permeability (cm/h) 237 Np: 0.74 cm/h
  Permeability (cm/h) 239 Pu: 3.44 cm/h
  Permeability (cm/h) 241 Am: 0.17 cm/h
[2]; [7]
  D(distribution coefficient) 237-Np: 0.85
  D(distribution coefficient) 239-Pu: 22
  D(distribution coefficient) 241-Am: 1.2

## CCCCCCCCCCCCCCOc1c2cc(NC(=O)CP(=O)(c3ccccc3)c3ccccc3)cc1Cc1cc(NC(=O)CP(=O)(c3ccccc3)c3ccccc3)cc(c1OCCCCCCCCCCCCCC)Cc1cc(NC(=O)CP(=O)(c3ccccc3)c3ccccc3)cc(c1OCCCCCCCCCCCCCC)Cc1cc(NC(=O)CP(=O)(c3ccccc3)c3ccccc3)cc(c1OCCCCCCCCCCCCCC)C2 [Compound 3, tetra-O-tetradecyl tetrakis (diphenyl-phosphinoxidoacetamido)calix[4]arene]
[1]
  Percentage transported in 6 h. 152 Eu: 90%
  Percentage transported in 6 h. 237 Np: 54%
  Percentage transported in 6 h. 239 Pu: 84%
  Percentage transported in 6 h. 241 Am: 98%
  Percentage of 239Pu transported in 24 h: 88%
  Percentage transported in 24 h. 152 Eu: 98%
  Percentage transported in 24 h. 237 Np: 62%
  Percentage transported in 24 h. 241 Am: 100%
  Permeability (cm/h) 152 Eu: 2.8 cm/h
  Permeability (cm/h) 237 Np: 1.3 cm/h
  Permeability (cm/h) 239 Pu: 2.95 cm/h
  Permeability (cm/h) 241 Am: 5.3 cm/h
[2]; [3]
  D(distribution coefficient) 152-Eu: > 100
[2]; [4]
  D(distribution coefficient) 237-Np: 1.8
  D(distribution coefficient) 239-Pu: 90
  D(distribution coefficient) 241-Am: > 100
